{
  "source": "patent US9446039B2",
  "about": "“Aminoheteroaryl compounds as MTH1 inhibitors” (CEMM—FORSCHUNGSZENTRUM FÜR MOLEKULARE MEDIZIN GMBH, priority 2012, dated 2016)",
  "type_in_all_cases": "binding",
  "key": {"[1]": {"target": "SW480 colon carcinoma cells lysate proteins (Homo sapiens, UniProt P06753)", "sequence (P06753 whole entry)": "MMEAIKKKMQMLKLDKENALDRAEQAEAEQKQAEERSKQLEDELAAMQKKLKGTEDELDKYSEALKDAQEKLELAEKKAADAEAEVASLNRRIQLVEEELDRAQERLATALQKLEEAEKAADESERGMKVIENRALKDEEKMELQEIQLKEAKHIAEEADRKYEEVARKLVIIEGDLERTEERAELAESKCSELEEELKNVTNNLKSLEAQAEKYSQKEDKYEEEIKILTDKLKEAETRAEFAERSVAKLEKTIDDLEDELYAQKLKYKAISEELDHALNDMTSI", "conditions": "PreyGene TPM3"}, "[2]": {"target": "T1, SW480 colon carcinoma cells lysate proteins (Homo sapiens, UniProt P11169)", "T1 sequence (P11169 1-496)": "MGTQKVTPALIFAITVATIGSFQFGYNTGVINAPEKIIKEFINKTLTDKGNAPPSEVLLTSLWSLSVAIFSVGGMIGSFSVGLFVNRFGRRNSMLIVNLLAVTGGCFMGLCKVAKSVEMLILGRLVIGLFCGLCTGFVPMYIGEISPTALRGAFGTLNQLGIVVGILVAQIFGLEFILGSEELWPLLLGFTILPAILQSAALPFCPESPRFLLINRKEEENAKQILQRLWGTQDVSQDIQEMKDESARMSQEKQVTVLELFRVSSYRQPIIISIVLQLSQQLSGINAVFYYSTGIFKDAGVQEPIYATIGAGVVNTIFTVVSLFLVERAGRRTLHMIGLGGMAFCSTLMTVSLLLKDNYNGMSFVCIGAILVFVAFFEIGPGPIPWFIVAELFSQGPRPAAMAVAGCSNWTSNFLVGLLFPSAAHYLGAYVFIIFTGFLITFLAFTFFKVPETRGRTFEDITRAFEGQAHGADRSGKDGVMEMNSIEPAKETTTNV", "conditions": "PreyGene SLC2A3"}, "[3]": {"target": "SW480 colon carcinoma cells lysate proteins (Homo sapiens, UniProt Q15056)", "conditions": "PreyGene EIF4H"}, "[4]": {"target": "T2, SW480 colon carcinoma cells lysate proteins (Homo sapiens, UniProt Q15758)", "T2 sequence (Q15758 1-541)": "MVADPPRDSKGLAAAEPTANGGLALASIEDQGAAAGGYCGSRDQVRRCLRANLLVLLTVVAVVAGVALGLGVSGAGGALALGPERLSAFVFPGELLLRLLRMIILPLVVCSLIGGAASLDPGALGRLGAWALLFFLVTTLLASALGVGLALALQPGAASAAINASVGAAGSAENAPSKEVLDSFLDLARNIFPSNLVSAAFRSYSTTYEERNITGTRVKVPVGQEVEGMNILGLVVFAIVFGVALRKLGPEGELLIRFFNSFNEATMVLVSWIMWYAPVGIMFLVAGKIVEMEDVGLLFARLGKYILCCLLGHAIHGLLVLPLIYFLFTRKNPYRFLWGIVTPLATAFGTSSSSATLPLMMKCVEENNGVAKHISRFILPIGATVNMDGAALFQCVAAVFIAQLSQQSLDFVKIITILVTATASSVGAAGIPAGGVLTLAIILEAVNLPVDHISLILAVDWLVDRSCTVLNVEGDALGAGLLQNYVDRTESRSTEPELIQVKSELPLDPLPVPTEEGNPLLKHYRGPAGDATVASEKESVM", "conditions": "PreyGene SLC1A5"}, "[5]": {"target": "T3, SW480 colon carcinoma cells lysate proteins (Homo sapiens, UniProt O00764)", "T3 sequence (O00764 1-312)": "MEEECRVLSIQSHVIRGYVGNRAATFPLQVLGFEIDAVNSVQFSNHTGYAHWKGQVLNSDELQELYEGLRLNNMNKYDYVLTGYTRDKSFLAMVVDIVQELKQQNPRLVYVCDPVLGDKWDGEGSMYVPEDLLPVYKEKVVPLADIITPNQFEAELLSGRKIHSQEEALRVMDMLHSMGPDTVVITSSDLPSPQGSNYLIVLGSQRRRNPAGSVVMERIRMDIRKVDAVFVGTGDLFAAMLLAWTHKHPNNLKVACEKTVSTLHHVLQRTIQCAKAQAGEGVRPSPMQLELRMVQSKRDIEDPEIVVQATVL", "conditions": "PreyGene PDXK"}, "[6]": {"target": "SW480 colon carcinoma cells lysate proteins (Homo sapiens, UniProt Q9Y266)", "sequence (Q9Y266 whole entry)": "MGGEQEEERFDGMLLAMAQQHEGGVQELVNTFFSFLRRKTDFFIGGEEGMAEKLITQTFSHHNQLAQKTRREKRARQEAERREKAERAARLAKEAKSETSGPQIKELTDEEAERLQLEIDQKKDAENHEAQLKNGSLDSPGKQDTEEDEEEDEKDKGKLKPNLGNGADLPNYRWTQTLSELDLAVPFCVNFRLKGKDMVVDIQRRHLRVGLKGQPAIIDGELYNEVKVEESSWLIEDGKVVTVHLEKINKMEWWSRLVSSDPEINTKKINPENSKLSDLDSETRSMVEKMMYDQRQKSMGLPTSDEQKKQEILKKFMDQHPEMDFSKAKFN", "conditions": "PreyGene NUDC; SW480 cells"}, "[7]": {"target": "SW480 colon carcinoma cells lysate proteins (Homo sapiens, UniProt O75874)", "sequence (O75874 whole entry)": "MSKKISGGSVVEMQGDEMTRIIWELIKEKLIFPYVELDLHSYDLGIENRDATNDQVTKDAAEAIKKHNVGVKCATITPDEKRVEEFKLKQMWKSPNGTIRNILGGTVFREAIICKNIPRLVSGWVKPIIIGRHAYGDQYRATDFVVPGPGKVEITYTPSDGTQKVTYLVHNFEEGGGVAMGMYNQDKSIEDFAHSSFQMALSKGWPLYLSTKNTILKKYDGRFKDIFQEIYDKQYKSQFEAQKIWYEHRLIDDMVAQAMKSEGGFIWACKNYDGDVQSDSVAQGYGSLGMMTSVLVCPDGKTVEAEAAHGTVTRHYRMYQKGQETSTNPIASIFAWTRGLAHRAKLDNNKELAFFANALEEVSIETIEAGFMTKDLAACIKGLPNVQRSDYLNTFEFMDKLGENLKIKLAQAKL", "conditions": "PreyGene IDH1"}, "[8]": {"target": "T4, SW480 colon carcinoma cells lysate proteins (Homo sapiens, UniProt Q15785)", "T4 sequence (Q15785 1-309)": "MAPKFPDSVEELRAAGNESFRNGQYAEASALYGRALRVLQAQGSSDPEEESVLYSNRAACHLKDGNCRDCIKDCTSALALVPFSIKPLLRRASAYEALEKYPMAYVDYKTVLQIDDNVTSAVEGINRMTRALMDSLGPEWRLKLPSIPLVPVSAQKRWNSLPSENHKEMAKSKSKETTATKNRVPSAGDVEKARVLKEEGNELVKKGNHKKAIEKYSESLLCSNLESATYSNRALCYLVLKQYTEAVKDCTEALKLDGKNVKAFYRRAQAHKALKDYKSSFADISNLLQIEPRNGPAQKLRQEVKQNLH", "conditions": "PreyGene TOMM34"}, "[9]": {"target": "SW480 colon carcinoma cells lysate proteins (Homo sapiens, UniProt Q99623)", "sequence (Q99623 whole entry)": "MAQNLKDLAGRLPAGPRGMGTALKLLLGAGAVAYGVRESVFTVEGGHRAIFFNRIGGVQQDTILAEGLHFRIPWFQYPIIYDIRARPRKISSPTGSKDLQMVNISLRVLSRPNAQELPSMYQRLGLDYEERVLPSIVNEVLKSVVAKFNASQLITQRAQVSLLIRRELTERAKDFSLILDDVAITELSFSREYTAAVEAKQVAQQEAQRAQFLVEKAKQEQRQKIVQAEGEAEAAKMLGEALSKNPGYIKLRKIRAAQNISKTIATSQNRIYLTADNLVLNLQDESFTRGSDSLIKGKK", "conditions": "PreyGene PHB2; SW480 cells"}},
  "data": [
    {"smiles": "C[C@H](Oc1cc(-c2cnn(C3CCNCC3)c2)cnc1N)c1c(Cl)ccc(F)c1Cl", "note": "[(5)-crizotinib]", "values": [
      {"measurement": "AvgP", "setting": "[1]", "result": 0.4204},
      {"measurement": "SC.Exp. 1-1", "setting": "[1]", "result": 2},
      {"measurement": "SC.Exp. 1-2", "setting": "[1]", "result": 3},
      {"measurement": "SC.Exp. 2-1", "setting": "[1]", "result": 0},
      {"measurement": "SC.Exp. 2-2", "setting": "[1]", "result": 0},
      {"measurement": "Sum (SC.Exp.)", "setting": "[1]", "result": 5},
      {"measurement": "AvgP", "setting": "[2]", "result": 0.1834},
      {"measurement": "SC.Exp. 1-1", "setting": "[2]", "result": 3},
      {"measurement": "SC.Exp. 1-2", "setting": "[2]", "result": 0},
      {"measurement": "SC.Exp. 2-1", "setting": "[2]", "result": 0},
      {"measurement": "SC.Exp. 2-2", "setting": "[2]", "result": 0},
      {"measurement": "Sum (SC.Exp.)", "setting": "[2]", "result": 3},
      {"measurement": "AvgP", "setting": "[3]", "result": 0.4095},
      {"measurement": "SC.Exp. 1-1", "setting": "[3]", "result": 3},
      {"measurement": "SC.Exp. 1-2", "setting": "[3]", "result": 2},
      {"measurement": "SC.Exp. 2-1", "setting": "[3]", "result": 0},
      {"measurement": "SC.Exp. 2-2", "setting": "[3]", "result": 0},
      {"measurement": "Sum (SC.Exp.)", "setting": "[3]", "result": 5},
      {"measurement": "AvgP", "setting": "[4]", "result": 0.227},
      {"measurement": "SC.Exp. 1-1", "setting": "[4]", "result": 1},
      {"measurement": "SC.Exp. 1-2", "setting": "[4]", "result": 0},
      {"measurement": "SC.Exp. 2-1", "setting": "[4]", "result": 3},
      {"measurement": "SC.Exp. 2-2", "setting": "[4]", "result": 2},
      {"measurement": "Sum (SC.Exp.)", "setting": "[4]", "result": 6},
      {"measurement": "AvgP", "setting": "[5]", "result": 0.2207},
      {"measurement": "SC.Exp. 1-1", "setting": "[5]", "result": 3},
      {"measurement": "SC.Exp. 1-2", "setting": "[5]", "result": 0},
      {"measurement": "SC.Exp. 2-1", "setting": "[5]", "result": 0},
      {"measurement": "SC.Exp. 2-2", "setting": "[5]", "result": 0},
      {"measurement": "Sum (SC.Exp.)", "setting": "[5]", "result": 3},
      {"measurement": "AvgP", "setting": "[6]", "result": 0},
      {"measurement": "SC.Exp. 1-1", "setting": "[6]", "result": 0},
      {"measurement": "SC.Exp. 1-2", "setting": "[6]", "result": 1},
      {"measurement": "SC.Exp. 2-1", "setting": "[6]", "result": 0},
      {"measurement": "SC.Exp. 2-2", "setting": "[6]", "result": 0},
      {"measurement": "SC.Exp. Sum", "setting": "[6]", "result": 1},
      {"measurement": "AvgP", "setting": "[7]", "result": 0.1991},
      {"measurement": "SC.Exp. 1-1", "setting": "[7]", "result": 3},
      {"measurement": "SC.Exp. 1-2", "setting": "[7]", "result": 0},
      {"measurement": "SC.Exp. 2-1", "setting": "[7]", "result": 0},
      {"measurement": "SC.Exp. 2-2", "setting": "[7]", "result": 0},
      {"measurement": "Sum (SC.Exp.)", "setting": "[7]", "result": 3},
      {"measurement": "AvgP", "setting": "[8]", "result": 0.1791},
      {"measurement": "SC.Exp. 1-1", "setting": "[8]", "result": 0},
      {"measurement": "SC.Exp. 1-2", "setting": "[8]", "result": 2},
      {"measurement": "SC.Exp. 2-1", "setting": "[8]", "result": 0},
      {"measurement": "SC.Exp. 2-2", "setting": "[8]", "result": 0},
      {"measurement": "Sum (SC.Exp.)", "setting": "[8]", "result": 2},
      {"measurement": "AvgP", "setting": "[9]", "result": 0},
      {"measurement": "SC.Exp. 1-1", "setting": "[9]", "result": 9},
      {"measurement": "SC.Exp. 1-2", "setting": "[9]", "result": 8},
      {"measurement": "SC.Exp. 2-1", "setting": "[9]", "result": 3},
      {"measurement": "SC.Exp. 2-2", "setting": "[9]", "result": 5},
      {"measurement": "SC.Exp. Sum", "setting": "[9]", "result": 25}
    ]}
  ]
}
